Measured values: patent publication US12492188B2, “1H-benzo[D]imidazole derivatives as TLR9 inhibitors for the treatment of fibrosis” (BRISTOL-MYERS SQUIBB COMPANY, priority 2020, dated 2025)
Where two headings read alike, the source gives them in different places.

Assays:
Assay type in all cases: cell-based
[1] = molecular target: T1, human TLR8 (Homo sapiens, UniProt Q9NR97); experiment: TLR8 inhibition reporter assay (HEK-Blue cells, secreted embryonic alkaline phosphatase reporter); conditions: HEK-Blue cells overexpressing human TLR8, stimulated with R848 15.9 μM; read-out: TLR 8 IC50
T1 construct: host or cells: HEK-Blue cells (HEK293-derived reporter line)
T1 sequence (Q9NR97 27-1041): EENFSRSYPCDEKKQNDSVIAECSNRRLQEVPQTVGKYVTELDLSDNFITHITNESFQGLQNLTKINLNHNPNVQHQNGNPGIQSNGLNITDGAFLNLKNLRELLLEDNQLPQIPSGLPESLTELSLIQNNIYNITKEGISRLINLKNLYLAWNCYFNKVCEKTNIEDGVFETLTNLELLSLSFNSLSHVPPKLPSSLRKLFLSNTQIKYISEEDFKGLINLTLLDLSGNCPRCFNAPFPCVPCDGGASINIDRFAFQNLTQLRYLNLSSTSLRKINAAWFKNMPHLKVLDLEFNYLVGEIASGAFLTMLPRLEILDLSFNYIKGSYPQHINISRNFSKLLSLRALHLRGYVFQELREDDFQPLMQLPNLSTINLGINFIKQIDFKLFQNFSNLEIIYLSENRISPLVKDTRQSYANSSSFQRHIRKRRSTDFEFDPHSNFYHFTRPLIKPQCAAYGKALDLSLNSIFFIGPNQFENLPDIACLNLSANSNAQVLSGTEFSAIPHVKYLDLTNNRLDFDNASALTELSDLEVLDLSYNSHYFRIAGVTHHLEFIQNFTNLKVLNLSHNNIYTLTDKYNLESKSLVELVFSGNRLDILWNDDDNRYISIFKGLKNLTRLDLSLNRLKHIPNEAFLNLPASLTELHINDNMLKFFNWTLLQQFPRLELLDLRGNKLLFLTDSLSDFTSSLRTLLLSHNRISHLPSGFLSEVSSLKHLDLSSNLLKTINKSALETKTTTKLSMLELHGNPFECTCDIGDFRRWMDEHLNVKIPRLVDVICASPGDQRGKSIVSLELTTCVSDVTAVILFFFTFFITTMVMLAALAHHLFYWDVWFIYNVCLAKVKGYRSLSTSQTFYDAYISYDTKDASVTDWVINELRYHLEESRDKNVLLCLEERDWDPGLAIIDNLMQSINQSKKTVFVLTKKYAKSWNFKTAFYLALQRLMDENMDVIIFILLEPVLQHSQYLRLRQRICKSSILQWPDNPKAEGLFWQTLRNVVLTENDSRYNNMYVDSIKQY
Experimental: (§1) TLR7/8/9 Inhibition Reporter Assays
(§2) HEK-Blue™-cells (Invivogen) overexpressing human TLR7, TLR8 or TLR9 receptors were used for screening inhibitors of these receptors using an inducible SLAP (secreted embryonic alkaline phosphatase) reporter gene under the control of the […] minimal promoter fused to five NF-κB and AP-1-binding sites. Briefly, cells are seeded into Greiner 384 well plates (15000 cells per well for TLR7, 20,000 for TLR8 and 25,000 for TLR9) and then treated with test compounds in DMSO to yield a final dose response concentration range of 0.05 nM-50 μM. After a 30 minute compound pre-treatment at room temperature, the cells are then stimulated with a TLR7 ligand (gardiquimod at a final concentration of 7.5 μM), TLR8 ligand (R848 at a final concentration of 15.9 μM) or TLR9 ligand (ODN2006 at a final concentration of 5 nM) to activate NF-κB and AP-1 which induce the production of SLAP. After a 22 hour incubation at 37° C., […], SLAP levels are determined with the addition of HEK-Blue™ Detection reagent (Invivogen), a cell culture medium that allows for detection of SLAP, according to manufacturer's specifications. The percent inhibition is determined as the […] in the HEK-Blue signal present in wells treated with agonist plus DMSO alone compared to wells treated with a known inhibitor.

[2] = molecular target: T2, human TLR7 (Homo sapiens, UniProt Q9NYK1); experiment: TLR7 inhibition reporter assay (HEK-Blue cells, secreted embryonic alkaline phosphatase reporter); conditions: HEK-Blue cells overexpressing human TLR7, stimulated with gardiquimod 7.5 μM; read-out: TLR 7 IC50
T2 construct: host or cells: HEK-Blue cells (HEK293-derived reporter line)
T2 sequence (Q9NYK1 27-1049): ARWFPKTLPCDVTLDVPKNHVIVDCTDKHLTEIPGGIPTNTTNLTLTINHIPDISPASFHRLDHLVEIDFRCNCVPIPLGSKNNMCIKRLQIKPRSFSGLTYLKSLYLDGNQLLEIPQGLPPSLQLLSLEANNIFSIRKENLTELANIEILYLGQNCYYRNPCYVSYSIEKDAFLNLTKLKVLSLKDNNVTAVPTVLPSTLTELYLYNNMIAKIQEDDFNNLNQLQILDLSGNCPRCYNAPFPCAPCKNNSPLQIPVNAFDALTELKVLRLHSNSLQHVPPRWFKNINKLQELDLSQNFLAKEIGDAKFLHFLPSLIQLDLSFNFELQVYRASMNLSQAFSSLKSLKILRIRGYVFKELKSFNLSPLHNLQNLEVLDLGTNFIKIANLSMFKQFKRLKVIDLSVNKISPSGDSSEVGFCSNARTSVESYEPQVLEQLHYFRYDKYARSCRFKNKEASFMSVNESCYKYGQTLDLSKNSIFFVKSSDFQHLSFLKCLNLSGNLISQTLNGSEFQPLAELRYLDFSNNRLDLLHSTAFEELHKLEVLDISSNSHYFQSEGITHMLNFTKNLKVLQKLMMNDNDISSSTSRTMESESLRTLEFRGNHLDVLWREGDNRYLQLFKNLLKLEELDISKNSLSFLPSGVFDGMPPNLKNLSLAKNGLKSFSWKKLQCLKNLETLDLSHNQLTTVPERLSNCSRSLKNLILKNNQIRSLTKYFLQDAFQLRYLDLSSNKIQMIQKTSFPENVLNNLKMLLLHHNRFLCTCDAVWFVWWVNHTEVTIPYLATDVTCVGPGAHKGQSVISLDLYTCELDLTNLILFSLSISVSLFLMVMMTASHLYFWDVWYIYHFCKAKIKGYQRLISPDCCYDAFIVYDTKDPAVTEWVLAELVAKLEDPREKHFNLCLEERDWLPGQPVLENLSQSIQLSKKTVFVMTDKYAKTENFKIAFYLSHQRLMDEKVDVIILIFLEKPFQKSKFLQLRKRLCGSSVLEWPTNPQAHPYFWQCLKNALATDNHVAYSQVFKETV
Experimental: as §1, §2

[3] = molecular target: T3, human TLR9 (Homo sapiens, UniProt Q9NR96); experiment: TLR9 inhibition reporter assay (HEK-Blue cells, secreted embryonic alkaline phosphatase reporter)
T3 construct: host or cells: HEK-Blue cells (HEK293-derived reporter line)
T3 sequence (Q9NR96 26-1032): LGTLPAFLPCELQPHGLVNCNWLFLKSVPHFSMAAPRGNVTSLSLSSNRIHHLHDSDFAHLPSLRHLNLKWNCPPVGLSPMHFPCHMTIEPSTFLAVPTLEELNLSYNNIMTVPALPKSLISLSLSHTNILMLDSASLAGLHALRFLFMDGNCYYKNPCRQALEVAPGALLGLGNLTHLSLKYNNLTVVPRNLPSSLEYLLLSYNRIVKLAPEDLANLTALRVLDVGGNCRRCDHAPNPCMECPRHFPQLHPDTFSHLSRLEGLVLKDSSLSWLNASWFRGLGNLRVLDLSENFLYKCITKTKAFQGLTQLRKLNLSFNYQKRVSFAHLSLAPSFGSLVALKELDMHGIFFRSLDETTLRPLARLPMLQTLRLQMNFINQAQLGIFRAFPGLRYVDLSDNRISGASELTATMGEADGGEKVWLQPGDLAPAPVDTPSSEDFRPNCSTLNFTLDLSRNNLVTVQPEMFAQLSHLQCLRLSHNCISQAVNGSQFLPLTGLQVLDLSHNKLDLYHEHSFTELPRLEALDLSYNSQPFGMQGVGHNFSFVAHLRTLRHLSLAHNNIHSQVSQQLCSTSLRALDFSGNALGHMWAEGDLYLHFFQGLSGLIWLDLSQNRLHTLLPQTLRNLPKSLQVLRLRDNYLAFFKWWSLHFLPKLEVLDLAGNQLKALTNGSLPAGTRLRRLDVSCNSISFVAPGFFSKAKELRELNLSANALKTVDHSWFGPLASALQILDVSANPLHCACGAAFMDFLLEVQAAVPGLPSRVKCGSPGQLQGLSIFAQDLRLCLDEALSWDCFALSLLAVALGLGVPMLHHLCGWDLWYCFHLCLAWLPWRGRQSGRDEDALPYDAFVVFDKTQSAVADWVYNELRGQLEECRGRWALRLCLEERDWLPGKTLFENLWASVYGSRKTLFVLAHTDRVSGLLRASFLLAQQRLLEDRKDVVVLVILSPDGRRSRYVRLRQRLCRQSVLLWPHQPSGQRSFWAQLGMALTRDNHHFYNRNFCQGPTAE
Summary of the method: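 HEK-Blue cells overexpressing the respective receptor, with an NF-κB/AP-1-driven SEAP reporter, were pre-treated with compound (0.05 nM–50 μM) for 30 min at room temperature. Stimulation used gardiquimod 7.5 μM (TLR7), R848 15.9 μM (TLR8) or ODN2006 5 nM (TLR9); SEAP was read after 22 h at 37 °C as percent inhibition.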

[4] = HEK-Blue cells overexpressing human TLR9, stimulated with ODN2006 5 nM, 22 hour incubation, reporter readout
[5] = HEK-Blue cells overexpressing human TLR9, stimulated with ODN2006 5 nM, read-out: TLR 9 IC50

Row | Compound | IC50 [1] [nM] | IC50 [2] [nM] | IC50 [3, 4] [nM] | IC50 [3, 5] [nM] | IC50 ([3]; HEK-Blue human TLR9 reporter cells) [nM]
1 | COc1ccc(-c2nc3c(C)cc(C4C[C@H]5CC[C@@H](C4)N5C4CCN(C(C)C)CC4)cc3n2C)cc1OC (mixture of isomers) [Example 21, 2-(3,4-dimethoxyphenyl)-6-(8-(1-isopropylpiperidin-4-yl)-8-azabicyclo[3.2.1]octan-3-yl)-1,4-dimethyl-1H-benzo[d]imidazole] | > 50000 | 2600 | 24 | – | –
2 | CCn1c(-c2ccc(OC)c(OC)c2)nc2ccc(C3CCN(C4CCN(C(C)C)CC4)CC3)cc21 (single isomer, unassigned) [Example 8, 2-(3,4-dimethoxyphenyl)-1-ethyl-6-(1′-isopropyl-[1,4′-bipiperidin]-4-yl)-1H-benzo[d]imidazole] | > 50000 | 2500 | 210 | – | –
3 | CCn1c(-c2ccc(OC)c(OC)c2)nc2cc(C3CCN(C4CCN(C(C)C)CC4)CC3)ccc21 (single isomer, unassigned) [Example 9, 2-(3,4-dimethoxyphenyl)-1-ethyl-5-(1′-isopropyl-[1,4′-bipiperidin]-4-yl)-1H-benzo[d]imidazole] | 1300 | 2700 | 250 | 249 | –
4 | COc1ccc(-c2nc3c(C)cc(C4CCN(C5CC6CCC(C5)N6CC(C)C)CC4)cc3n2C)cc1OC (single isomer, unassigned) [Example 17, 2-(3,4-dimethoxyphenyl)-6-(1-(8-isobutyl-8-azabicyclo[3.2.1]octan-3-yl)piperidin-4-yl)-1,4-dimethyl-1H-benzo[d]imidazole] | > 50000 | 6500 | 25 | – | –
5 | COc1ccc(-c2nc3c(C)cc(C4CCN(C5CC6CCC(C5)N6CC(C)C)CC4)cc3n2C)cc1OC (single isomer, unassigned) [Example 18, 2-(3,4-dimethoxyphenyl)-6-(1-(8-isobutyl-8-azabicyclo[3.2.1]octan-3-yl)piperidin-4-yl)-1,4-dimethyl-1H-benzo[d]imidazole] | > 50000 | 7700 | 29 | – | –
6 | COc1ccc(-c2nc3cc(C4CCN(C5CCN(C6CC6)CC5)CC4)ccc3n2C)cc1OC [Example 35, 5-(1′-cyclopropyl-[1,4′-bipiperidin]-4-yl)-2-(3,4-dimethoxyphenyl)-1-methyl-1H-benzo[d]imidazole] | > 50000 | – | 850 | 852 | –
7 | COc1cc(-c2nc3c(C)cc(C4CCN(C5CC6CCC(C5)N6CC(C)C)CC4)cc3n2C)cn2ncnc12 (stereo not drawn) [Example 126, 6-(6-(1-(8-isobutyl-8-azabicyclo[3.2.1]octan-3-yl)piperidin-4-yl)-1,4-dimethyl-1H-benzo[d]imidazol-2-yl)-8-methoxy-[1,2,4]triazolo[1,5-a]pyridine] | 4500 | – | 590 | 588 | –
8 | Cn1c(-c2ccc(S(C)(=O)=O)cc2)nc2ccc(C3CCN(C4CC5CCC(C4)N5C4COC4)CC3)c(F)c21 (stereo not drawn) [Example 272, 7-fluoro-1-methyl-2-(4-(methylsulfonyl)phenyl)-6-(1-(8-(oxetan-3-yl)-8-azabicyclo[3.2.1]octan-3-yl)piperidin-4-yl)-1H-benzo[d]imidazole] | > 50000 | – | – | 600 | –
9 | Cn1c(-c2ccc(S(C)(=O)=O)cc2)nc2c(F)cc(C3CCN(C4CC5CCC(C4)N5C4COC4)CC3)cc21 (stereo not drawn) [Example 287, 4-fluoro-1-methyl-2-(4-(methylsulfonyl)phenyl)-6-(1-(8-(oxetan-3-yl)-8-azabicyclo[3.2.1]octan-3-yl)piperidin-4-yl)-1H-benzo[d]imidazole] | > 50000 | – | – | 104 | 100
10 | Cc1cc(-c2ccc(CN3CCC(N4CCCC4)CC3)c(F)c2)cc2c1nc(-c1ccc(S(C)(=O)=O)cc1)n2C [Example 387, 6-(3-fluoro-4-((4-(pyrrolidin-1-yl)piperidin-1-yl)methyl)phenyl)-1,4-dimethyl-2-(4-(methylsulfonyl)phenyl)-1H-benzo[d]imidazole] | 7300 | – | 56 | 56 | –
